From PubChem BioAssay (NCI)
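1) Cells in 96-well plates. 2) Compound, 48 h, 5 concentrations. 3) Linear interpolation between surrounding doses. 4) Unreached endpoint = highest concentration. Here, GI50 denotes the concentration required for 50% inhibition of growth. TGI denotes the concentration required for complete inhibition of growth.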

Columns and labels:
Test in all cases: NCI tumour cell line growth inhibition, 48 h
CCRF-CEM leukemia = system: CCRF-CEM leukemia
TK-10 renal = system: TK-10 renal
LOX IMVI melanoma = system: LOX IMVI melanoma
786-0 renal = system: 786-0 renal
COLO 205 colon = system: COLO 205 colon
SK-MEL-5 melanoma = system: SK-MEL-5 melanoma
SNB-19 CNS = system: SNB-19 CNS
SN12C renal = system: SN12C renal
OVCAR-3 ovarian = system: OVCAR-3 ovarian
OVCAR-4 ovarian = system: OVCAR-4 ovarian
SF-539 CNS = system: SF-539 CNS
SF-295 CNS = system: SF-295 CNS
M14 melanoma = system: M14 melanoma
HT29 colon = system: HT29 colon
OVCAR-8 ovarian = system: OVCAR-8 ovarian
SK-OV-3 ovarian = system: SK-OV-3 ovarian
HCT-15 colon = system: HCT-15 colon
MCF7 breast = system: MCF7 breast
KM12 colon = system: KM12 colon
CAKI-1 renal = system: CAKI-1 renal
K-562 leukemia = system: K-562 leukemia
UO-31 renal = system: UO-31 renal
UACC-62 melanoma = system: UACC-62 melanoma
HCT-116 colon = system: HCT-116 colon
NCI-H226 lung = system: NCI-H226 lung
MDA-MB-468 breast = system: MDA-MB-468 breast
MDA-MB-435 = system: MDA-MB-435
RPMI-8226 leukemia = system: RPMI-8226 leukemia
MDA-MB-231 breast = system: MDA-MB-231 breast
SNB-75 CNS = system: SNB-75 CNS
NCI-H522 lung = system: NCI-H522 lung
SK-MEL-28 melanoma = system: SK-MEL-28 melanoma
A549 NSCLC = system: A549 NSCLC
HOP-62 NSCLC = system: HOP-62 NSCLC
DU-145 prostate = system: DU-145 prostate
OVCAR-5 ovarian = system: OVCAR-5 ovarian
HCC-2998 colon = system: HCC-2998 colon
HL-60(TB) leukemia = system: HL-60(TB) leukemia
RXF 393 renal = system: RXF 393 renal
SW-620 colon = system: SW-620 colon
SR leukemia = system: SR leukemia
MALME-3M melanoma = system: MALME-3M melanoma
NCI-H23 lung = system: NCI-H23 lung
BT-549 breast = system: BT-549 breast
HOP-92 NSCLC = system: HOP-92 NSCLC
ACHN renal = system: ACHN renal
A498 renal = system: A498 renal
T-47D breast = system: T-47D breast
PC-3 prostate = system: PC-3 prostate
UACC-257 melanoma = system: UACC-257 melanoma
U251 CNS = system: U251 CNS
IGROV1 ovarian = system: IGROV1 ovarian
SF-268 CNS = system: SF-268 CNS
SK-MEL-2 melanoma = system: SK-MEL-2 melanoma
NCI-H460 lung = system: NCI-H460 lung
HS 578T breast = system: HS 578T breast
EKVX NSCLC = system: EKVX NSCLC

Compound: Cn1nc(C(F)(F)F)cc1-c1cc(Cl)c(COc2ccc(Cl)cc2)c(-c2ccc(Cl)c(C(F)(F)F)c2)c1O
- GI50 (CCRF-CEM leukemia): 1.75 µM
- TGI (CCRF-CEM leukemia): 10.8 µM
- GI50 (TK-10 renal): 3.3 µM
- TGI (TK-10 renal): 15.6 µM
- GI50 (LOX IMVI melanoma): 3.11 µM
- TGI (LOX IMVI melanoma): 10.6 µM
- GI50 (786-0 renal): 2.62 µM
- TGI (786-0 renal): 7.97 µM
- GI50 (COLO 205 colon): 1.38 µM
- TGI (COLO 205 colon): 2.75 µM
- GI50 (SK-MEL-5 melanoma): 1.18 µM
- TGI (SK-MEL-5 melanoma): 2.71 µM
- GI50 (SNB-19 CNS): 2.25 µM
- TGI (SNB-19 CNS): 13.1 µM
- GI50 (SN12C renal): 1.26 µM
- TGI (SN12C renal): 7.7 µM
- GI50 (OVCAR-3 ovarian): 2.26 µM
- TGI (OVCAR-3 ovarian): 12.6 µM
- GI50 (OVCAR-4 ovarian): 3.11 µM
- TGI (OVCAR-4 ovarian): 13.5 µM
- GI50 (SF-539 CNS): 2.06 µM
- TGI (SF-539 CNS): 5.69 µM
- GI50 (SF-295 CNS): 1.88 µM
- TGI (SF-295 CNS): 4.12 µM
- GI50 (M14 melanoma): 2.74 µM
- TGI (M14 melanoma): 8.16 µM
- GI50 (HT29 colon): 3.36 µM
- TGI (HT29 colon): 14.6 µM
- GI50 (OVCAR-8 ovarian): 3.09 µM
- TGI (OVCAR-8 ovarian): 14.5 µM
- GI50 (SK-OV-3 ovarian): 3.02 µM
- TGI (SK-OV-3 ovarian): 11 µM
- GI50 (HCT-15 colon): 1.28 µM
- TGI (HCT-15 colon): 7.14 µM
- GI50 (MCF7 breast): 1.26 µM
- TGI (MCF7 breast): 10 µM
- GI50 (KM12 colon): 2.85 µM
- TGI (KM12 colon): 10.8 µM
- GI50 (CAKI-1 renal): 2.17 µM
- TGI (CAKI-1 renal): 7.56 µM
- GI50 (K-562 leukemia): 0.509 µM
- TGI (K-562 leukemia): > 100 µM
- GI50 (UO-31 renal): 2.57 µM
- TGI (UO-31 renal): 8.6 µM
- GI50 (UACC-62 melanoma): 1.45 µM
- TGI (UACC-62 melanoma): 4.88 µM
- GI50 (HCT-116 colon): 1.71 µM
- TGI (HCT-116 colon): 10.5 µM
- GI50 (NCI-H226 lung): 2.72 µM
- TGI (NCI-H226 lung): 9.52 µM
- GI50 (MDA-MB-468 breast): 1.95 µM
- TGI (MDA-MB-468 breast): 8.03 µM
- GI50 (MDA-MB-435): 3.02 µM
- TGI (MDA-MB-435): 10.3 µM
- GI50 (RPMI-8226 leukemia): 1.06 µM
- TGI (RPMI-8226 leukemia): 5.4 µM
- GI50 (MDA-MB-231 breast): 1.88 µM
- TGI (MDA-MB-231 breast): 5.2 µM
- GI50 (SNB-75 CNS): 2 µM
- TGI (SNB-75 CNS): 8.07 µM
- GI50 (NCI-H522 lung): 1.79 µM
- TGI (NCI-H522 lung): 13.4 µM
- GI50 (SK-MEL-28 melanoma): 2.88 µM
- TGI (SK-MEL-28 melanoma): 11.7 µM
- GI50 (A549 NSCLC): 3.36 µM
- TGI (A549 NSCLC): 15.5 µM
- GI50 (HOP-62 NSCLC): 3.26 µM
- TGI (HOP-62 NSCLC): 10.8 µM
- GI50 (DU-145 prostate): 3.08 µM
- TGI (DU-145 prostate): 14.1 µM
- GI50 (OVCAR-5 ovarian): 3.83 µM
- TGI (OVCAR-5 ovarian): 13.5 µM
- GI50 (HCC-2998 colon): 1.68 µM
- TGI (HCC-2998 colon): 10.5 µM
- GI50 (HL-60(TB) leukemia): 2.18 µM
- TGI (HL-60(TB) leukemia): 5.69 µM
- GI50 (RXF 393 renal): 1.64 µM
- TGI (RXF 393 renal): 5.54 µM
- GI50 (SW-620 colon): 3.13 µM
- TGI (SW-620 colon): 12.1 µM
- GI50 (SR leukemia): 2.66 µM
- TGI (SR leukemia): > 100 µM
- GI50 (MALME-3M melanoma): 1.96 µM
- TGI (MALME-3M melanoma): 5.16 µM
- GI50 (NCI-H23 lung): 1.45 µM
- TGI (NCI-H23 lung): 4.77 µM
- GI50 (BT-549 breast): 1.85 µM
- TGI (BT-549 breast): 7.48 µM
- GI50 (HOP-92 NSCLC): 1.61 µM
- TGI (HOP-92 NSCLC): 4.38 µM
- GI50 (ACHN renal): 2.23 µM
- TGI (ACHN renal): 9.21 µM
- GI50 (A498 renal): 2.53 µM
- TGI (A498 renal): 7.3 µM
- GI50 (T-47D breast): 0.724 µM
- TGI (T-47D breast): 8.7 µM
- GI50 (PC-3 prostate): 1.57 µM
- TGI (PC-3 prostate): 10.5 µM
- GI50 (UACC-257 melanoma): 2.67 µM
- TGI (UACC-257 melanoma): 10.5 µM
- GI50 (U251 CNS): 2.42 µM
- TGI (U251 CNS): 14.3 µM
- GI50 (IGROV1 ovarian): 2.92 µM
- TGI (IGROV1 ovarian): 14.3 µM
- GI50 (SF-268 CNS): 2.33 µM
- TGI (SF-268 CNS): 13.1 µM
- GI50 (SK-MEL-2 melanoma): 2.09 µM
- TGI (SK-MEL-2 melanoma): 5.3 µM
- GI50 (NCI-H460 lung): 1.27 µM
- TGI (NCI-H460 lung): 7.3 µM
- GI50 (HS 578T breast): 1.82 µM
- TGI (HS 578T breast): 6.58 µM
- GI50 (EKVX NSCLC): 2.51 µM
- TGI (EKVX NSCLC): 10.4 µM

Compound: CCN(CC)CCOc1ccc(C(=C(C)Cc2ccc(OC)cc2)c2ccc(OCCN(CC)CC)cc2)cc1
- GI50 (MDA-MB-468 breast): 3.27 µM
- TGI (MDA-MB-468 breast): 6.65 µM

Compound: Cc1cc(N2CCCC2)nc(NC2CCCC(Nc3ccnc4cc(Cl)ccc34)C2)n1 (centres undefined)
- GI50 (MDA-MB-468 breast): 1.41 µM
- TGI (MDA-MB-468 breast): 3.14 µM

Compound: O=c1[nH]ccc2nc(N3CCC(O)CC3)nc(Nc3cccc(C(F)(F)F)c3)c12
- GI50 (MDA-MB-468 breast): 1.76 µM
- TGI (MDA-MB-468 breast): 7.11 µM

Compound: c1cc(OCCN2CCCCC2)ccc1CNc1ccc2nc(CCC3CCCCC3)[nH]c2c1
- GI50 (MDA-MB-468 breast): 1.58 µM
- TGI (MDA-MB-468 breast): 3.84 µM

Compound: NC(=O)c1ccc2c(-c3ccnc(NCCCO)n3)c(-c3ccc(F)cc3)nn2c1
- GI50 (MDA-MB-468 breast): > 16.1 µM
- TGI (MDA-MB-468 breast): > 25 µM

Compound: C=CCN1C=CC(=O)[C@H](O[Si](C)(C)C(C)(C)C)[C@@H]1/C=C/c1ccccc1
- GI50 (MDA-MB-468 breast): 8.27 µM
- TGI (MDA-MB-468 breast): 22.2 µM

Compound: O=C([O][Hg][CH2]C1COCC([CH2][Hg][O]C(=O)c2ccccc2)O1)c1ccccc1 (centres undefined)
- GI50 (MDA-MB-468 breast): 1.72 µM
- TGI (MDA-MB-468 breast): 3.24 µM

Compound: COc1ccc(-c2nc3ncccn3c2/C=C/C(=O)c2cc(OC)c(OC)c(OC)c2)cc1
- GI50 (MDA-MB-468 breast): 1.81 µM
- TGI (MDA-MB-468 breast): 3.65 µM

Compound: COc1ccc(CNc2c3ccccc3nc3ccc(OC)cc23)cc1
- GI50 (MDA-MB-468 breast): 1.82 µM
- TGI (MDA-MB-468 breast): 4.31 µM

Compound: CCN=c1cc2sc3cc(NCC)c(C)cc3nc-2cc1C
- GI50 (MDA-MB-468 breast): 0.86 µM
- TGI (MDA-MB-468 breast): 5.57 µM

Compound: C[C@@H]1N=C(c2ccc(Br)cc2)Nc2nc3ccccn3c2C1=O
- GI50 (MDA-MB-468 breast): 1.98 µM
- TGI (MDA-MB-468 breast): 5.12 µM

Compound: Cn1ccnc1C(=O)/C=C/c1ccc(CNC(=O)c2ccc(F)cc2)cc1
- GI50 (MDA-MB-468 breast): 1.66 µM
- TGI (MDA-MB-468 breast): 7.04 µM

Compound: O=CN1N=C(c2ccc(Cl)cc2)CC1c1cccc(Nc2ccnc3cc(Cl)ccc23)c1 (centres undefined)
- GI50 (MDA-MB-468 breast): 0.284 µM
- TGI (MDA-MB-468 breast): 3.93 µM

Compound: CCOc1ccc(Nc2nc(-c3ccc4c(c3)NC(=O)CO4)cs2)cc1
- GI50 (MDA-MB-468 breast): 2.46 µM
- TGI (MDA-MB-468 breast): 8.04 µM

Compound: Cc1ccc(-c2nc(N)nc3c2nnn3Cc2cccc(CO[C@H]3CCOC3)n2)o1
- GI50 (MDA-MB-468 breast): 44.4 µM
- TGI (MDA-MB-468 breast): > 100 µM
